# Assay results as given in patent US20120171123A1, “USES AND COMPOSITIONS FOR TREATMENT OF RHEUMATOID ARTHRITIS” (priority 2006, published 2012).
# What was measured:
# [1] = system: MTX-naïve adult patients with active, early RA (<3 years); test: Study J: radiographic progression (TSS, joint erosion, joint space narrowing); assay type: in vivo, human; set-up: key to mean change from baseline in TSS / Mean change in TSS / TSS after 2 years / change in TSS over 2 years / mean change in TSS from baseline / Mean ΔTSS at 1 year / Mean ΔTSS Yr 1-Yr 2: modified total Sharp score, 0-398 scale; details: for Annualized rate of radiographic progression (ΔTSS): all pts in treatment arm
# Excerpt: The co-primary endpoints, comparing MTX alone with the combination at 1 year, were the ACR50 response (using non-responder imputation), and inhibition of radiographic progression, as measured by change in total Sharp score (TSS). In this study, the term “Major Clinical Response” (MCR) meant a continuous ACR70 response for 6 or more consecutive months.
# At 1 and 2 years, the American College of Rheumatology (ACR) responses (ACR20, ACR50, and ACR70), the Disease Activity Score 28 (DAS28), and the change (Δ) in Total Sharp Score (TSS) were determined for all patients. Results were analyzed for the intention-to-treat (ITT) population using imputation for missing data. Clinical remission was defined as DAS28<2.6. The mean ΔTSS values at 1 year and 2 years (N=791) were determined for patients in each ACR response category (ACR20/50/70) and for patients with DAS28<2.6
# Radiographic progression was measured by Total Sharp Score (TSS) at baseline, and 1 and 2 years in the intention to treat population (ITT) using imputation for missing data. In this analysis, patients were divided into 1 of 2 categories by disease duration at baseline: <6 months (Group 1) or 6 months to 3 years (Group 2). Mean changes in TSS were reported for both groups by each of the 3 treatment arms from baseline to Year 1 and from Year 1 to Year 2.
# Radiographic progression was assessed by mean change from baseline in Total Sharp Score (TSS) and stratified into those with (ΔTSS>0.5) and without (Δ≦TSS 0.5). Patients were categorized as either having radiographic progression at 1 year (ΔTSS>0.5) or not (Δ≦TSS 0.5). A logistic regression model was used to identify predictors of radiographic disease progression by testing several baseline characteristics, including age, disease duration, RF status, TJC, SJC, joint erosions, and CRP. For analyses of CRP, patients were categorized as normal (CRP≦0.8 mg/dL) or abnormal (CRP>0.8 mg/dL).
# Mean change from baseline in Total Sharp Score (TSS) was measured at 6 months, 1 year, and 2 years in the intention-to-treat (ITT) population using imputation for missing data. Patients were classified as having radiographic progression (mean change in TSS>0.5) or without radiographic progression (ΔTSS≦0.5). Patients with inadequate data were excluded from this analysis.
# Patients in the Ada+MTX and the MTX arms were classified according to level of clinical response (non-responder (<ACR20), ACR20, ACR50, or ACR70) and radiographic progression (Yes or No (ΔTSS≦0.5)). The ΔTSS was analyzed overall, and for ACR subgroups. This included determination of mean ΔTSS and probability plots.
# Study J was a 2-year, double-blind, active comparator-controlled, Phase III study. […] For each patient, radiographs of hands and feet were taken at baseline, 6 months, 1 year and 2 years and evaluated for joint erosions (JE) and joint space narrowing (JSN) by 2 blinded radiologists. Changes from baseline in the modified total Sharp score (TSS, 0-398) were calculated for patients in each treatment arm. Cumulative probability plots were generated by estimating the probability of exceeding a given change in TSS. For each treatment, we calculated the percentages of patients whose ΔTSS exceeded specified thresholds, and the probability of having a given ΔTSS (using cumulative probability plots). For each of 4 cumulative probability ranges, 0-10%, 10-50%, 50-90% and 90-100% (higher numbered ranges=greater ΔTSS), mean ΔTSS values were calculated. In previous reports, Study J radiographic analyses employed linear imputation. In the present analysis, only observed data were employed, with no imputation.
# [2] = system: MTX-naïve adult patients with active, early RA (<3 years); test: Study J: subject disposition and withdrawals; details: 2 years
# [3] = Group 1, BL disease duration <6 mos (n=448)
# [4] = Group 2, BL disease duration 6 mos to 3 yrs (n=333)
# [5] = disease duration 6 months to 3 years
# [6] = disease duration 6 months-3 years (n=333)
smiles,measurement,setting,value
"CN(Cc1cnc2nc(N)nc(N)c2n1)c1ccc(C(=O)N[C@@H](CCC(=O)O)C(=O)O)cc1 [mtx alone, methotrexate]",Annualized rate of radiographic progression (ΔTSS),[1]; 0-6 mos,7.0 Sharp Score Units per Year
same,Annualized rate of radiographic progression (ΔTSS),[1]; 1-2 yrs,4.7 Sharp Score Units per Year
same,patients with ΔTSS≦0.5 among those achieving DAS28 remission,[1]; 1 year,47%
same,Mean change in TSS,"[1]; 1 year, ACR20 responders",3.9
same,mean change in JE score,"[1]; 1 year, ACR20 responders",2.0
same,mean change in JSN,"[1]; 1 year, ACR20 responders",1.4
same,Mean change in TSS,"[1]; 1 year, ACR50 responders",3.2
same,mean change in JE score,"[1]; 1 year, ACR50 responders",2.2
same,mean change in JSN,"[1]; 1 year, ACR50 responders",1.0
same,Mean change in TSS,"[1]; 1 year, ACR70 responders",2.7
same,mean change in JE score,"[1]; 1 year, ACR70 responders",1.6
same,mean change in JSN,"[1]; 1 year, ACR70 responders",1.1
same,patients with no radiographic progression,"[1]; 1 year, abnormal baseline CRP normalized at 1 year",33%
same,patients with no radiographic progression,"[1]; 1 year, elevated CRP at both baseline and 1 year",31%
same,patients with no disease progression (ΔTSS≦0.5),"[1]; 1 year, patients with CRP and X-rays available",38%
same,Mean change in TSS,"[1]; 1 year, patients with DAS28<2.6",1.9
same,Mean change in TSS,"[1]; 1 year, patients with DAS28<2.6, listed as MTX alone",2.8
same,% of patients with >4 change TSS,[1]; 2 years,41.3%
same,% of patients with >10 change TSS,[1]; 2 years,23.3%
same,% of patients with >20 change TSS,[1]; 2 years,7%
same,patients with no radiographic progression (change in TSS ≦0.5),[1]; 2 years,34%
same,patients with ΔTSS≦0.5 among those achieving DAS28 remission,[1]; 2 years,47%
same,Mean change TSS in radiographic progressors (ΔTSS > 0.5),"[1]; 2 years, ACR20 responders",9.4
same,mean change in JE score,"[1]; 2 years, ACR20 responders",3.6
same,mean change in JSN,"[1]; 2 years, ACR20 responders",2.3
same,mean change in TSS from baseline,"[1]; 2 years, ACR20 responders",5.5
same,mean change in TSS from baseline,"[1]; 2 years, ACR20 responders, listed as MTX alone",5.8
same,Mean change TSS in radiographic progressors (ΔTSS > 0.5),"[1]; 2 years, ACR50 responders",8.5
same,mean change in JE score,"[1]; 2 years, ACR50 responders",3.0
same,mean change in JSN,"[1]; 2 years, ACR50 responders",1.8
same,mean change in TSS from baseline,"[1]; 2 years, ACR50 responders",4.9
same,Mean change TSS in radiographic progressors (ΔTSS > 0.5),"[1]; 2 years, ACR70 responders",7.5
same,mean change in JE score,"[1]; 2 years, ACR70 responders",2.6
same,mean change in JSN,"[1]; 2 years, ACR70 responders",1.4
same,mean change in TSS from baseline,"[1]; 2 years, ACR70 responders",4.1
same,Mean change in TSS,"[1]; 2 years, patients with DAS28<2.6",2.8
same,Mean change in TSS,"[1]; 2 years, patients with DAS28<2.6, listed as MTX alone",1.9
same,"Frequency of radiographic progression (ΔTSS > 0.5), % of patients","[1]; 2 years, ACR20 responders, observed data",62%
same,"Frequency of radiographic progression (ΔTSS > 0.5), % of patients","[1]; 2 years, ACR50 responders, observed data",60%
same,"Frequency of radiographic progression (ΔTSS > 0.5), % of patients","[1]; 2 years, ACR70 responders, observed data",57%
same,Mean change TSS in radiographic progressors (ΔTSS > 0.5),"[1]; 2 years, Non-responder (<ACR20)",15.5
same,"Frequency of radiographic progression (ΔTSS > 0.5), % of patients","[1]; 2 years, Non-responder (<ACR20), observed data",75%
same,Mean change in TSS,"[1]; 2 years, all points (0-100), observed data",6.4
same,Mean change in TSS,"[1]; 2 years, cumulative probability range 0-10",−3.9
same,Mean change in TSS,"[1]; 2 years, cumulative probability range 10-50",0.5
same,Mean change in TSS,"[1]; 2 years, cumulative probability range 50-90",7.6
same,Mean change in TSS,"[1]; 2 years, cumulative probability range 90-100",31.4
same,% of patients with >4 change TSS,[1]; 6 months,0%
same,% of patients with >10 change TSS,[1]; 6 months,1.7%
same,% of patients with >20 change TSS,[1]; 6 months,2.3%
same,patients with no radiographic progression,[1]; 6 months,51%
same,Mean change TSS in radiographic progressors (ΔTSS > 0.5),"[1]; 6 months, ACR20 responders",4.8
same,"Frequency of radiographic progression (ΔTSS > 0.5), % of patients","[1]; 6 months, ACR20 responders, observed data",55%
same,Mean change TSS in radiographic progressors (ΔTSS > 0.5),"[1]; 6 months, ACR50 responders",3.8
same,"Frequency of radiographic progression (ΔTSS > 0.5), % of patients","[1]; 6 months, ACR50 responders, observed data",51%
same,Mean change TSS in radiographic progressors (ΔTSS > 0.5),"[1]; 6 months, ACR70 responders",3.4
same,"Frequency of radiographic progression (ΔTSS > 0.5), % of patients","[1]; 6 months, ACR70 responders, observed data",49%
same,Mean change TSS in radiographic progressors (ΔTSS > 0.5),"[1]; 6 months, Non-responder (<ACR20)",10.8
same,"Frequency of radiographic progression (ΔTSS > 0.5), % of patients","[1]; 6 months, Non-responder (<ACR20), observed data",59%
same,Mean change in TSS,"[1]; 6 months, all points (0-100), observed data",3.4
same,Mean change in TSS,"[1]; 6 months, cumulative probability range 0-10",−2.0
same,Mean change in TSS,"[1]; 6 months, cumulative probability range 10-50",0.2
same,Mean change in TSS,"[1]; 6 months, cumulative probability range 50-90",4.4
same,Mean change in TSS,"[1]; 6 months, cumulative probability range 90-100",16.5
same,Annualized rate of radiographic progression (ΔTSS),[1]; 6 mos-1 yr,4.4 Sharp Score Units per Year
same,Mean change in TSS,"[1]; 26 weeks, observed data",3.4
same,Mean change in TSS,"[1]; 52 weeks, observed data",5.2
same,Mean change in TSS,"[1]; 104 weeks, observed data",6.4
same,Patients with No Radiographic Progression at 1 Year,[1]; CRP (BL and Year 1) Abnormal to Normal,33%
same,Patients with No Radiographic Progression at 1 Year,[1]; CRP (BL and Year 1) Always Normal,86%
same,Patients with No Radiographic Progression at 1 Year,[1]; CRP (BL and Year 1) Never Normal,31%
same,Mean ΔTSS Yr 1-Yr 2,[1]; [3],5.8
same,Mean ΔTSS at 1 year,[1]; [3],7.4
same,Mean ΔTSS Yr 1-Yr 2,[1]; [4],3.4
same,Mean ΔTSS at 1 year,[1]; [4],3.8
same,"No Progression at Month 6, %",[1]; Study J,51%
same,"No Progression at Month 6, patients/total",[1]; Study J,129/252
same,"No Progression at Month 6 and Year 2, %",[1]; Study J,61%
same,"No Progression at Month 6 and Year 2, patients/Month-6 non-progressors",[1]; Study J,79/129
same,"Yr-2 Non-P, %",[1]; among Mo-6 Non-Progressors,61%
same,"Yr-2 Non-P, number of patients",[1]; among Mo-6 Non-Progressors,79
same,"Yr-2 Prog, %",[1]; among Mo-6 Non-Progressors,39%
same,"Yr-2 Prog, number of patients",[1]; among Mo-6 Non-Progressors,50
same,"Yr-2 Non-P, %",[1]; among Mo-6 Progressors,6%
same,"Yr-2 Non-P, number of patients",[1]; among Mo-6 Progressors,7
same,"Yr-2 Prog, %",[1]; among Mo-6 Progressors,94%
same,"Yr-2 Prog, number of patients",[1]; among Mo-6 Progressors,116
same,TSS after 2 years,[1]; [5],32.2
same,change in TSS over 2 years,[1]; [5],7.2
same,mean change TSS during year 1,[1]; [6],3.8 sharp score units
same,mean change TSS during year 2,[1]; [6],3.4 sharp score units
same,TSS after 2 years,[1]; disease duration <6 months,32.4
same,change in TSS over 2 years,[1]; disease duration <6 months,13.2
same,mean change TSS during year 1,[1]; disease duration <6 months,7.4 sharp score units
same,mean change TSS during year 2,[1]; disease duration <6 months,5.8 sharp score units
same,"rate of change in TSS in ACR20 responders, relative to combination therapy",[1]; in vivo,7 times
same,"Mo-6 Non-Progressors, % of arm",[1]; no progression = ΔTSS≦0.5,51%
same,"Mo-6 Non-Progressors, number of patients",[1]; no progression = ΔTSS≦0.5,129
same,patients with no progression at year 2,[1]; no progression at month 6,61%
same,"Mo-6 Progressors, % of arm",[1]; progression = ΔTSS>0.5,49%
same,"Mo-6 Progressors, number of patients",[1]; progression = ΔTSS>0.5,123
same,patients with no progression at year 2,[1]; progression at month 6,6%
same,mean change from baseline in TSS,"[1]; week 26, ITT with imputation",3.5
same,mean change from baseline in TSS,"[1]; week 52 (1 year), ITT with imputation",5.7
same,mean change from baseline in TSS,"[1]; week 104 (2 years), ITT with imputation",10.4
same,"withdrawn, reason AE",[2],8%
same,"withdrawn, reason lack of efficacy",[2],18%
